pEC50: −log10 of the molar value.
biological target: T1, recombinant human ALX receptor (Homo sapiens, UniProt P25090); assay: Intracellular calcium measurements (FLIPR), ALX receptor agonistic activity; format: cell-based; settings: HEK293-hALXR-Gα16 cells, Fluo-4 calcium signal, normalized to WKYMVm 10 nM
T1 construct: expressed in transfected cells; host or cells: HEK293 (HEK293-hALXR-Gα16)
T1 sequence (P25090 1-351): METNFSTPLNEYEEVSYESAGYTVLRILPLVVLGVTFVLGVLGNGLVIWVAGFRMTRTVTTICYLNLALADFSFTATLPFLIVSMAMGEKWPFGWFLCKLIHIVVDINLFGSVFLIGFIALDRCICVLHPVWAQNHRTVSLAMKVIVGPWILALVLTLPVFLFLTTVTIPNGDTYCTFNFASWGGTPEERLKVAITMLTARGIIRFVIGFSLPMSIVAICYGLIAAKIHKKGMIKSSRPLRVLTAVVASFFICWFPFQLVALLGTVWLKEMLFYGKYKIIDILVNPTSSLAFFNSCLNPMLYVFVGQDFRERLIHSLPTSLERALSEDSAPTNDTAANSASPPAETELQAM
Description: The ALX receptor agonistic activity of the compounds of formula (I) is determined in accordance with the following experimental method.
Intracellular Calcium Measurements:
Cells expressing recombinant human ALX receptor and the G-protein Gα16 (HEK293-hALXR-Gα16) were grown to 80% confluency in Growing Medium (GM). Cells were detached from culture dishes with a cell dissociation buffer (Invitrogen, 13151-014), and collected by centrifugation at 1′000 rpm at rt for 5 min in Assay Buffer (AB) (equal parts of Hank's BSS (Gibco, 14065-049) and DMEM without Phenol Red (Gibco, 11880-028)). After 60 min incubation at 37° C. under 5% CO2 in AB supplemented with 1 μM Fluo-4 (AM) (Invitrogen, F14202) and 20 mM HEPES (Gibco, 15630-056), the cells were washed and resuspended in AB. They were then seeded onto 384-well FLIPR assay plates (Greiner, 781091) at 50′000 cells in 70 μl per well and sedimented by centrifugation at 1′000 rpm for 1 min. Stock solutions of test compounds were made up at a concentration of 10 mM in DMSO, and serially diluted in AB to concentrations required for activation dose response curves. WKYMVm (Phoenix Peptides) was used as a reference agonist. A FLIPR Tetra instrument (Molecular Devices) was operated according to the manufacturer's standard instructions, adding 4 μl of test compound dissolved at 10 mM in DMSO and diluted prior to the experiment in assay buffer to obtain the desired final concentration. Changes in fluorescence were monitored before and after the addition of test compounds at lex=488 nm and lem=540 nm. Emission peak values above base level after compounds addition were exported after base line subtraction. Values were normalized to high-level control (WKYMVm compound, 10 nM final concentration) after subtraction of the base line value (AB addition).

SMILES | pEC50
COc1ccc(C[C@@H](NC(=O)NC2CCCN(CC(F)F)C2)c2nc3ccccc3[nH]2)cc1 (stereo partly drawn) [Example 186, 1-((R)-1-(1H-Benzo[d]imidazol-2-yl)-2-(4-methoxyphenyl)ethyl)-3-(-1-(2,2-difluoroethyl)piperidin-3-yl)urea] | 7.54
COc1ccc(CNC(=O)N[C@H](Cc2ccc(OC)cc2)c2nc3ccccc3[nH]2)cc1 [Example 387, (R)-1-(1-(1H-Benzo[d]imidazol-2-yl)-2-(4-methoxyphenyl)ethyl)-3-(4-methoxybenzyl)urea] | 5.86
COc1ccc(C[C@@H](NC(=O)N[C@H]2CC[C@H](O)CC2)c2nc3cc(F)ccc3[nH]2)cc1 [Example 85, 1-((R)-1-(5-Fluoro-1H-benzo[d]imidazol-2-yl)-2-(4-methoxyphenyl)ethyl)-3-(trans-4-hydroxycyclohexyl)urea] | 8.80
COc1ccc(C[C@@H](NC(=O)NC[C@@H](O)c2ccccc2)c2nc3ccccc3[nH]2)cc1 [Example 281, 1-((R)-1-(1H-Benzo[d]imidazol-2-yl)-2-(4-methoxyphenyl)ethyl)-3-((S)-2-hydroxy-2-phenylethyl)urea] | 6.98
CCC(CC)NC(=O)N[C@H](Cc1ccc(OC)cc1)c1nc2ccccc2[nH]1 [Example 97, (R)-1-(1-(1H-Benzo[d]imidazol-2-yl)-2-(4-methoxyphenyl)ethyl)-3-(pentan-3-yl)urea] | 6.91
COc1ccc(C[C@@H](NC(=O)NC2CCN(C3CCCCC3)CC2)c2nc3ccccc3[nH]2)cc1 [Example 90, (R)-1-(1-(1H-Benzo[d]imidazol-2-yl)-2-(4-methoxyphenyl)ethyl)-3-(1-cyclohexylpiperidin-4-yl)urea] | 7.64
N#Cc1ccc(CC(NC(=O)N[C@H]2CC[C@H](O)CC2)c2nc3ccccc3[nH]2)cc1 (relative stereo) [Example 78, 1-(1-(1H-Benzo[d]imidazol-2-yl)-2-(4-cyanophenyl)ethyl)-3-(trans-4-hydroxycyclohexyl)urea] | 6.16
COc1ccc(C[C@@H](NC(=O)NC2CC(C)(C)NC(C)(C)C2)c2nc3ccccc3[nH]2)cc1 [Example 87, (R)-1-(1-(1H-Benzo[d]imidazol-2-yl)-2-(4-methoxyphenyl)ethyl)-3-(2,2,6,6-tetramethylpiperidin-4-yl)urea] | 7.85
COc1ccc(C[C@@H](NC(=O)NC2CCCC(C(=O)O)C2)c2nc3ccccc3[nH]2)cc1 (stereo partly drawn) [Example 229, Lithium 3-(3-((R)-1-(1H-benzo[d]imidazol-2-yl)-2-(4-methoxyphenyl)ethyl)ureido)cyclohexanecarboxylate] | 7.03
COc1ccc(C[C@@H](NC(=O)NC2(c3cccc(C)c3)CC2)c2nc3ccccc3[nH]2)cc1 [Example 354, (R)-1-(1-(1H-Benzo[d]imidazol-2-yl)-2-(4-methoxyphenyl)ethyl)-3-(1-(m-tolyl)cyclopropyl)urea] | 6.84
COc1ccc(CC(NC(=O)Nc2ccnn2-c2ccccn2)c2nc3ccccc3[nH]2)cc1 (centres unmarked) [Example 411, 1-(1-(1H-benzo[d]imidazol-2-yl)-2-(4-methoxyphenyl)ethyl)-3-(1-(pyridin-2-yl)-1H-pyrazol-5-yl)urea] | 7.25
COc1ccc(CC(NC(=O)NC23CCC(O)(CC2)CC3)c2nc3ccc(F)cc3[nH]2)c(F)c1 (single isomer, unassigned; ent-2) [Example 398, 1-(1-(6-Fluoro-1H-benzo[d]imidazol-2-yl)-2-(2-fluoro-4-methoxyphenyl)ethyl)-3-(4-hydroxybicyclo[2.2.2]octan-1-yl)urea (ent-2)] | 5.58
COc1ccc(C[C@@H](NC(=O)NCC2CCCC2)c2nc3ccccc3[nH]2)cc1 [Example 92, (R)-1-(1-(1H-Benzo[d]imidazol-2-yl)-2-(4-methoxyphenyl)ethyl)-3-(cyclopentylmethyl)urea] | 7.32
CCOC(=O)[C@@H]1CCCC[C@@H]1NC(=O)N[C@H](Cc1ccc(OC)cc1)c1nc2ccccc2[nH]1 (relative stereo) [Example 28, (1R*,2S*)-Ethyl 2-(3-((R)-1-(1H-benzo[d]imidazol-2-yl)-2-(4-methoxyphenyl)ethyl)ureido)cyclohexanecarboxylate] | 8.04

Source: patent US9663473B2 (Actelion Pharmaceuticals Ltd, priority 2013, dated 2017)
